The results in this text go back to US7084176B2, “N-arylphenylacetamide derivatives and medicinal compositions containing the same” (Dainippon Pharmaceutical Co., Ltd., priority 2001, dated 2006).

Where a name gives a salt, the structure may show the parent alone. Read-outs that look alike come from different tables or passages of the source. Where only a bound is given, the exact number is not on record here.

The subject of the test is male Std:ddY mice. Kind of test: Phenyl-1,4-benzoquinone-induced writhing test. Type of test: in vivo. Particulars: for inhibition in vivo at 10 mg/kg / ED50 / inhibition in vivo at 1 mg/kg: Mus musculus; for inhibition in vivo at 10 mg/kg / inhibition in vivo at 1 mg/kg: 1 h, read-out: Inhibitory percentage (%); for inhibition in vivo at 10 mg/kg / Inhibitory percentage (%): orally administered at a dose of 10 mg/kg; for inhibition in vivo at 10 mg/kg / inhibition in vivo at 1 mg/kg / Inhibitory percentage (%): 60 minutes before PBQ; for ED50 / ED50 (mg/kg sc) / ED50 (mg/kg po) / Inhibitory percentage (%): writhing inhibition; for ED50 / ED50 (mg/kg sc) / ED50 (mg/kg po): logit analysis; for inhibition in vivo at 1 mg/kg: subcutaneously administered at a dose of 1 mg/kg. The procedure:
Phenyl-1,4-benzoquinone-induced Writhing Test Referring to the method disclosed in Proc. Soc. exp. Biol. […] For oral administration, a test compound was suspended in 0.5% tragacanth solution. […] In the control group, a physiological saline solution containing 10% Tween 80 and 10% ethanol was administered in the case of subcutaneous administration, or a 0.5% tragacanth solution was administered in the case of oral administration. The number of writhing movements in the test compound-treated group was compared with that in the control group, and the writhing inhibitory percentage was calculated therefrom and considered as an analgesic effect. Writhing inhibitory percentage (%)=[(A−B)/A]×100 In the above equation, A means the number of writhing movements in the control group, and B means the number of writhing movements in the test compound-treated group. From the writhing inhibitory percentage of the test compound, ED50 (mg/kg) was calculated by logit analysis.
In general terms: In writhing tests, fewer writhes than in controls are read as antinociception.

The mark [1] stands for this setting: po, oral administration, read-out: ED50 (mg/kg po).
[2] abbreviates: sc, subcutaneous administration, read-out: ED50 (mg/kg sc).

Regarding `COc1cc(CC(=O)Nc2cccc(N3CCCCC3)c2)ccc1OCCN` [Example 197, 4-(2-aminoethoxy)-3-methoxy-N-[3-(piperidin-1-yl)phenyl]-phenylacetamide], the inhibition in vivo at 10 mg/kg (po) came to 89.1%. Further, under setting [1], the ED50 worked out at 5.26 mg/kg.

On to `COc1cc(CC(=O)Nc2cccc(C#Cc3ccccc3)c2)ccc1O` [Example 36, 4-hydroxy-3-methoxy-N-[3-(2-phenylethynyl)phenyl]phenylacetamide], for which the inhibition in vivo at 1 mg/kg (sc) turned out to be 92.3%. Besides, for the setting “subcutaneous administration, listed as Ex. 36”, the “ED50 (mg/kg sc)” value is 0.046 mg/kg.

With `COc1cc(CC(=O)Nc2cccc(-c3ccccc3)c2)ccc1OCCN.Cl` [Example 63, 4-(2-aminoethoxy)-3-methoxy-N-(3-phenylphenyl)phenylacetamide], for the setting “po”, the inhibition in vivo at 10 mg/kg is 100%. Further, the inhibition in vivo at 1 mg/kg (sc) came to 100%. In addition, the “ED50 (mg/kg po)” value (oral administration, listed as Ex. 63) was 0.021 mg/kg. The “ED50 (mg/kg sc)” value (subcutaneous administration, listed as Ex. 63) was found to be 0.016 mg/kg.

Take `COc1cc(CC(=O)Nc2cccc(-c3ccccc3SC)c2)ccc1OCCN` [Example 158, 4-(2-aminoethoxy)-3-methoxy-N-[3-(2-methylthiophenyl)-phenyl]phenylacetamide]: the inhibition in vivo at 10 mg/kg (po) came out at 95.1%. Besides, under setting [1], the ED50 is 2.12 mg/kg.

As for `COc1cc(CC(=O)Nc2cccc(C3CCCC(C)C3)c2)ccc1O` (stereo not drawn) [Example 83, 4-hydroxy-3-methoxy-N-[3-(3-methylcyclohexan-1-yl)phenyl]-phenylacetamide], for the setting “sc”, the inhibition in vivo at 1 mg/kg came out at 83%. Besides, under setting [2], the ED50 is not above 0.1 mg/kg. Under “subcutaneous administration, listed as Ex. 83”, the “ED50 (mg/kg sc)” value turned out to be 0.10 mg/kg.

For `CS(=O)(=O)Nc1cc(CC(=O)Nc2cccc(C3CCCCC3)c2)ccc1O` [Ex. 34, N-(3-cyclohexylphenyl)-4-hydroxy-3-(methanesulfonylamino)phenylacetamide], the inhibition in vivo at 1 mg/kg (sc) is 41.5%. The ED50 under setting [2] came out at 0.48 mg/kg.

Consider `COc1cc(CC(=O)Nc2cccc(-c3cccc(C(C)C)c3)c2)ccc1OCCN` [Example 136, 4-(2-aminoethoxy)-N-[3-(3-isopropylphenyl)phenyl]-3-methoxyphenylacetamide], for which, under “po”, the inhibition in vivo at 10 mg/kg came out at 99%. Further, the ED50 under setting [1] was 3.11 mg/kg.

Consider `COc1cc(CC(=O)Nc2cccc(-c3ccccc3F)c2)ccc1OCCN` [Example 123, 4-(2-aminoethoxy)-N-[3-(2-fluorophenyl)phenyl]-3-methoxyphenylacetamide], for which, for the setting “po”, the inhibition in vivo at 10 mg/kg worked out at 100%. Under setting [1], the ED50 was not above 1 mg/kg. For the same compound, the “ED50 (mg/kg po)” value (oral administration, listed as Ex. 123) worked out at 0.76 mg/kg.

In the case of `COc1cc(CC(=O)Nc2cccc(C3C(C)CCCC3C)c2)ccc1O` (stereo not drawn) [Example 84, N-[3-(2,6-dimethylcyclohexan-1-yl)phenyl]-4-hydroxy-3-methoxyphenylacetamide], the inhibition in vivo at 1 mg/kg (sc) stood at 67.7%. In addition, the ED50 under setting [2] worked out at 0.45 mg/kg.

With `COc1cc(CC(=O)Nc2cccc(C3CCC(C(C)(C)C)CC3)c2)ccc1OC(C)=O` (stereo not drawn) [Example 69, 4-acetoxy-N-[3-(4-tert-butylcyclohexan-1-yl)phenyl]-3-methoxyphenylacetamide], for the setting “po”, the inhibition in vivo at 10 mg/kg came out at 73.5%. Moreover, the ED50 was 2.81 mg/kg under setting [1] and not above 0.1 mg/kg under setting [2]. Moreover, the inhibition in vivo at 1 mg/kg (sc) came out at 99%. Also, the “ED50 (mg/kg sc)” value (subcutaneous administration, listed as Ex. 69) turned out to be 0.088 mg/kg.

Regarding `COc1cc(CC(=O)Nc2cccc(-c3ccccc3Cl)c2)ccc1OCCN` [Example 125, 4-(2-aminoethoxy)-N-[3-(2-chlorophenyl)phenyl]-3-methoxyphenylacetamide], the inhibition in vivo at 10 mg/kg (po) amounted to 93%. The ED50 under setting [1] is not above 1 mg/kg. For the same compound, where the note is “oral administration, listed as Ex. 125”, the “ED50 (mg/kg po)” value is listed as 0.71 mg/kg.

As for `COc1cc(CC(=O)Nc2ccc3c(c2)C(=O)C(CC(C)C)CC3)ccc1O` (stereo not drawn) [Ex. 251, 4-hydroxy-3-methoxy-N-[1-oxo-2-(2-methylpropyl)-1,2,3,4-tetrahydronaphthalen-7-yl]phenylacetamide], the inhibition in vivo at 1 mg/kg (sc) turned out to be 42.7%.

Consider `COc1cc(CC(=O)Nc2cccc(-c3ccccc3C(C)(C)C)c2)ccc1OCCN` [Example 184, 4-(2-aminoethoxy)-N-[3-(2-tert-butylphenyl)phenyl]-3-methoxyphenylacetamide], for which the inhibition in vivo at 10 mg/kg (po) amounted to 100%. Moreover, under setting [1], the ED50 was not above 1 mg/kg. Moreover, the “ED50 (mg/kg po)” value (oral administration, listed as Ex. 184) amounted to 0.60 mg/kg.

`COc1cc(CC(=O)Nc2cccc(-c3ccc(C(F)(F)F)cc3)c2)ccc1OCCN` [Example 140, 4-(2-aminoethoxy)-3-methoxy-N-[3-(4-trifluoromethylphenyl)-phenyl]phenylacetamide]: for the setting “po”, the inhibition in vivo at 10 mg/kg turned out to be 91%. Further, the ED50 under setting [1] came to 2.18 mg/kg.

In the case of `COc1cc(CC(=O)Nc2cccc(C3CCCCCC3)c2)ccc1OCCN` [Ex. 58, 4-(2-aminoethoxy)-N-(3-cycloheptylphenyl)-3-methoxyphenylacetamide hydrochloride], the inhibition in vivo at 1 mg/kg (sc) was 54.4%.

As for `COc1cc(CC(=O)Nc2cccc(-c3cccn3C(=O)OC(C)(C)C)c2)ccc1O` [Example 101, 4-hydroxy-3-methoxy-N-[3-(1-tert-butoxycarbonylpyrrol-2-yl)-phenyl]phenylacetamide], the inhibition in vivo at 1 mg/kg (sc) is 100%. The ED50 under setting [2] came out at 0.23 mg/kg.

Take `COc1cc(CC(=O)Nc2cccc(N3CCCC(C)C3)c2)ccc1O` (stereo not drawn) [Example 88, N-[3-(3-methylpiperidin-1-yl)phenyl]-4-hydroxy-3-methoxyphenylacetamide]: the inhibition in vivo at 1 mg/kg (sc) came to 76.6%.

As to `COc1cc(CC(=O)Nc2cccc(C3=CCC(C(C)(C)C)CC3)c2)ccc1O` (stereo not drawn) [Example 80, N-[3-(4-tert-butylcyclohexen-1-yl)phenyl]-4-hydroxy-3-methoxyphenylacetamide], the inhibition in vivo at 1 mg/kg (sc) came out at 100%. Under setting [2], the ED50 is 0.37 mg/kg.

As to `COc1ccc(-c2ccccc2)cc1NC(=O)Cc1ccc(OCCN)c(OC)c1` [Example 177, 4-(2-aminoethoxy)-3-methoxy-N-[(2-methoxy-5-phenyl)phenyl]-phenylacetamide], the “Inhibitory percentage (%)” value came out at 78.9%. Besides, the “ED50 (mg/kg po)” value (oral administration) came out at 3.41 mg/kg.

Turning to `COc1cc(CC(=O)Nc2ccccc2Cc2ccccc2)ccc1O` [Ex. 97, N-(2-benzylphenyl)-4-hydroxy-3-methoxyphenylacetamide], for the setting “sc”, the inhibition in vivo at 1 mg/kg is 54.9%.

With `COc1cc(CC(=O)Nc2cccc(-c3cccc4ccccc34)c2)ccc1OCCN` [Example 163, 4-(2-aminoethoxy)-3-methoxy-N-[3-(naphthalen-1-yl)phenyl]-phenylacetamide], the inhibition in vivo at 10 mg/kg (po) stood at 87.9%. Moreover, under setting [1], the ED50 was 1.61 mg/kg.

Consider `COc1cc(CC(=O)Nc2cccc(CC3CCCCC3)c2)ccc1O` [Example 5, N-[3-(cyclohexylmethyl)phenyl]-4-hydroxy-3-methoxyphenylacetamide], for which the inhibition in vivo at 1 mg/kg (sc) stood at 83.5%. In addition, the ED50 under setting [2] amounted to 0.57 mg/kg.

With `COc1cc(CC(=O)Nc2cccc(-c3ccc(Cl)s3)c2)ccc1O` [Example 100, 4-hydroxy-3-methoxy-N-[3-(2-chlorothiophen-5-yl)phenyl]-phenylacetamide], the inhibition in vivo at 1 mg/kg (sc) worked out at 100%.

In the case of `COc1cc(CC(=O)Nc2cccc(-c3ccsc3)c2)ccc1OCCN` [Example 161, 4-(2-aminoethoxy)-3-methoxy-N-[3-(thiophen-3-yl)phenyl]-phenylacetamide], under “po”, the inhibition in vivo at 10 mg/kg turned out to be 79.4%. Further, the ED50 under setting [1] was determined as 2.79 mg/kg.

Consider `COc1cc(CC(=O)Nc2cc(-c3ccccc3)c(C)c(-c3ccccc3)c2)ccc1OCCN` [Example 181, 4-(2-aminoethoxy)-3-methoxy-N-[(4-methyl-3,5-diphenyl)-phenyl]phenylacetamide], for which the “Inhibitory percentage (%)” value is on record as 80.9%. In addition, the “ED50 (mg/kg po)” value (oral administration) came out at 1.11 mg/kg.

In the case of `COc1cc(CC(=O)Nc2cccc(C#Cc3ccccc3C(F)(F)F)c2)ccc1O` [Ex. 37, 4-hydroxy-3-methoxy-N-[3-[2-(2-trifluoromethylphenyl)-ethynyl]phenyl]phenylacetamide], the inhibition in vivo at 1 mg/kg (sc) came to 59.6%. Besides, the ED50 under setting [2] is 0.46 mg/kg.

Turning to `COc1cc(CC(=O)Nc2cccc(-c3cccc(-c4ccccc4)c3)c2)ccc1OCCN` [Example 145, 4-(2-aminoethoxy)-3-methoxy-N-[3-(3-phenylphenyl)phenyl]-phenylacetamide], the inhibition in vivo at 10 mg/kg (po) was 85.9%.

Turning to `COc1cc(CC(=O)Nc2cccc(C3CCCCC3)c2)ccc1O` [Example 1, N-(3-cyclohexylphenyl)-4-hydroxy-3-methoxyphenylacetamide], the inhibition in vivo at 1 mg/kg (sc) was found to be 100%. The “ED50 (mg/kg sc)” value (subcutaneous administration, listed as Ex. 1) came out at 0.014 mg/kg.

On to `COc1cc(CC(=O)Nc2cccc(-c3ccccc3-c3ccccc3)c2)ccc1OCCN` [Example 143, 4-(2-aminoethoxy)-3-methoxy-N-[3-(2-phenylphenyl)phenyl]-phenylacetamide], for which the inhibition in vivo at 10 mg/kg (po) was 73.2%. Also, the ED50 under setting [1] came out at 3.72 mg/kg.

As for `COc1cc(CC(=O)Nc2cccc(CCc3ccccc3F)c2)ccc1OCCN` [Example 219, 4-(2-aminoethoxy)-3-methoxy-N-[3-[2-(2-fluorophenyl)ethyl]-phenyl]phenylacetamide], the inhibition in vivo at 10 mg/kg (po) was 94%. In addition, under setting [1], the ED50 came out at 1.46 mg/kg.
